Data from patent US12274703B2, “Compositions and methods of treatment for neurological disorders comprising a dementia” (Gliapharm SA, priority 2017, dated 2025).

Key:
[1] = In vivo pharmacokinetics (PFC microdialysis and plasma); set-up: species or system mouse; settings: after gavage with 100 mg/kg; sustained over several hours
Description: Mice were anesthetized using isoflurane (2% and 800 mL/min 02). Before surgery, Finadyne (1 mg/kg, s.c.) was administered for analgesia during surgery and the post-surgical recovery period. A mixture of bupivacaine and epinephrine was used for local anesthesia of the incision site of the periost of the skull.
The animals were placed in a stereotaxic frame (Kopf instruments, USA). MetaQuant microdialysis probes with a 3 mm exposed polyacrylonitrile membrane (MQ-PAN 3/3, Brainlink, the Netherlands) were implanted into the prefrontal cortex (coordinates for the tip of the probe: AP=+2.0 mm (to bregma), lateral=−0.7 mm (to midline), ventral=−3.3 mm (to dura), with the incisor bar set at 0.0 mm and an angle of 8°). All coordinates were based on “The mouse brain in stereotaxic coordinates” by Paxinos and Franklin (2004). The probes were attached to the skull with a stainless steel screw and dental cement (Fuji Plus Capsules, Henry Schein, the Netherlands).
In the same surgical procedure, a catheter was placed into the jugular vein to accommodate blood sampling. An indwelling cannula was inserted into the right jugular vein, and exteriorized through an incision on top of the skull. […]
PK was measured for GP-04, GP-05, GP-07, GP-R1 and GP-P1 in the PFC (prefrontal cortex) and plasma of wild type C56Bl/6 mice by CRO Brainsonline.

[2] = test system: primary mouse astrocytes; assay: Extracellular lactate quantification, Example 2; assay type: cell-based; settings: Astrocyte, 3 nM to 30 μM, 1.5 h, read-out: EC50 release of lactate
Description: (§1) Primary cultures of cerebrocortical astrocytes were obtained from 1 to 2-day-old OF1 mouse pups (Charles River). Briefly, cortices were isolated and minced in small pieces under a dissecting microscope. The cells were incubated for 30 min at 37° C. in a solution containing 20 U/ml papain, 1 mM L-cysteine and 10 kU/ml DNase I. After dissociation, papain activity was stopped by the addition of fetal calf serum (FCS). Single-cell suspension was then obtained by mechanical dissociation, which consisted in cells trituration in a DMEM D7777 medium supplemented with 44 mm NaHCO3, 10 ml/L antibiotic/antimycotic solution and 10% FCS. […]
Secretion of L-lactate was measured in the extracellular medium of 96-well plated astrocytes after 90 min stimulation (at 37° C., in 5% CO2/95% air conditions) with Vehicle (DMSO), the compounds of the invention (100 nM to 100 μM) or positive control. […] To quantify lactate concentrations in the extracellular medium, 200 μl of a 0.2M Glycine-semicarbazide buffer (pH 10) containing 3 mM NAD and 14 U/ml LDH was added to each well of a 96-well plate containing 30 μl aliquots of extracellular medium. […] Fluorescence intensity (340 nm excitation/450 nm emission), which represents the amount of NADH produced, was measured, and lactate concentration values were determined relative to a standard curve of L-lactate concentrations. […]

[3] = test system: primary mouse astrocytes; assay: Extracellular medium acidification (SNARF5), Example 2; assay type: cell-based; settings: Astrocyte, 3 nM to 30 μM, 1.5 h and 3 h
Description: as §1
Secretion of lactate was measured indirectly through the acidification of extracellular medium using extracellular pH sensor SNARE-5F-(AND-6)-CAR (SNARF5). […] After 90 min stimulation, fluorescence was read at exc. […] The ratio of fluorescence between 630 nm and 580 emission values, which is proportional to extracellular pH, was calculated. […]
The extracellular medium acidification in primary mouse astrocytes treated with GP-A1 was quantified (FIG. 13). Extracellular medium acidification was measured over a period of 1.5 h and 3 h.

EC50 [2] [nM] | EC50 [3] [nM] | SMILES | Levels in the PFC [1]
– | – | CC(=O)N1CCc2sc(S(=O)(=O)N3CCN(c4ccccc4C)CC3)cc2C1 [P025-0159] | need chemical improvement to reach their target at therapeutic dose in the brain
590 | 370 to 480 | Cc1ccccc1NC(=O)C1CCCN(c2ncnc3oc(C)c(C)c23)C1 (stereo not shown) [F228-0422] | –
– | – | COc1cc(C)c(Cl)cc1S(=O)(=O)NCc1ccncc1 [T5580243] | at therapeutic range (100 nM to 1 uM)
